Laboratory results taken from patent publication US6875766B2, “Use of riboflavin and flavin derivatives as chitinase inhibitors” (Bayer AG, priority 2000, dated 2005).

Assays:
[1] = target: Lucilia cuprina chitinase; assay: Chitinase inhibitory activity (IC50) against Lucilia cuprina chitinase; type: biochemical
Protocol: (§1) The chitinase inhibitory activity was determined as already described [Omura, S., Arai, N., Yamaguchi, Y., Masuma, R., Iwai, Y., Namikoshi, M., Turberg, A., Kölbl, H., Shiomi, K., J. Antibiot., 53, 603-608 (2000)].

[2] = system: Streptomyces griseus chitinase (Sigma); assay: Chitinase inhibitory activity against Streptomyces griseus chitinase; type: biochemical; settings: at 100 μM (37° C.)
Protocol: as §1

[3] = system: Vibrio alginolyticus chitinase (Kyowa Medex); assay: Chitinase inhibitory activity against Vibrio alginolyticus chitinase; type: biochemical; settings: at 100 μM (37° C.)
Protocol: as §1

[4] = system: Lucilia cuprina endochitinase; assay: Chitinase test with soluble extracts from Lucilia cuprina puppae; type: biochemical; settings: cytosolic extract of late pupae, MUF-triacetylchitotriose substrate
Protocol: Chitinase test with soluble extracts from Lucilia cuprina puppae
Test animals: Cytosol of Lucilia cuprina
The substances, which are dissolved in DMSO, are provided on 384-well microtiter plates in a concentration of 2 mM, the first four columns being empty. The substances are diluted 1:40 with 100 mM NPP pH 7.0 (50 μM). 5 μl of each of these dilutions are transferred to a 384-well test plate, starting with column 5. Into the first two columns there are pipetted in each case as negative control, into the third and fourth column in each case 5 μl of 5×10^-6 M allosamidin in 2.5% DMSO in 100 mM NPP pH 7.0 5 μl 2.5% DMSO in 100 mM NPP pH 7.0 as positive control.
The substances are incubated for 20 minutes at room temperature with 2.5 μg of cytosolic extract of late Lucilia cuprina puppae in 10 μl of 100 mM sodium phosphate buffer pH 7.0 and 10 μl of 100 μM methylumbelliferyl (MUF-triacetylchitotriose). The reaction is quenched by addition of 25 μl of 0.5 M glycine buffer 2 M sodium hydroxide, pH 10.4. The inhibition is determined by measuring the relative fluorescence at an excitation of 360±40 nm and an emission of 460±40 nm. The test substances are evaluated in comparison with the inhibition of the enzyme by allosamidin. The inhibition of the release of MUF is a measure for the efficacy of the inhibitor. In subsequent tests, concentration series in the range of from 100 nM to 200 μM are tested, and the release of MUF is measured every 2 minutes before the reaction is quenched.
Compounds which lead to more than 50% inhibition of chitinase at maximum reaction velocity at 100 μM are assessed as effective.

[5] = system: Periplaneta americana, third instar; assay: Injection test with Periplaneta larvae; type: in vivo; settings: 2 μg injected per larva; observed over 23 days
Protocol: Injection test with Periplaneta larvae
Test animals: Periplaneta americana, third instar
The compounds are prepared in aqueous solution (0.1 N acetic acid) and diluted as required. Using a 10 μl Hamilton syringe, 1 μl of the 20 or 2 μg were injected behind the 3rd pair of legs closely underneath the abdominal cavity of the cockroach larvae. Solvent (0.1 N acetic acid) was applied as control and 10 μg allosamidine as positive control. Batches of twenty cockroach larvae were treated per concentration and compound. On day 1, the control mortality and the initial mortality caused essentially by artificial effects during the injection were determined. If this initial mortality was less than 50%, the experiment was continued. The cockroach larvae were placed on filter paper in standard Petri dishes (9.5 cm Ø), and a quarter of a wafer was added. The ecdysis rate of the control animals and of the treated cockroach larvae was observed over a period of 23 days, and larval mortality and inhibition of ecdysis were recorded after days 1, 5 and 23. The efficacy is calculated using the following formula. [formula]

Compound: Cc1cc2nc3c(=O)[nH]c(=O)nc-3n(C[C@H](O)[C@H](O)[C@H](O)CO)c2cc1C [compound 1, riboflavin]
- IC50 ([1]; 20° C.): 380 nM
- IC50 ([1]; 37° C.): 2100 nM
- inhibition of the Streptomyces griseus chitinase [2]: no inhibition
- inhibition of the Vibrio alginolyticus chitinase [3]: no inhibition
- inhibition of the Lucilia cuprina endochitinase ([4]; 10 μM): >>50%
- inhibition of the Lucilia cuprina endochitinase ([4]; 100 μM): >>50%
- inhibition of the Lucilia cuprina endochitinase ([4]; 200 μM): >>>50%
- mortality against Periplaneta americana third instars [5]: More than 50%
